Values of other authors, collected in patent US20090023643A1, “Methods For Treating Acute Myocardial Infarction By Administering Calcitonin Gene Related Peptide And Compositions Containing The Same” (VasoGenix Pharmaceuticals, Inc., priority 2004, published 2009).

Legend:
TNF-α = conditions: lipopolysaccharide induced, macrophages; Feng et al 1997
IL-1β = conditions: Torii et al 1997
IL-7 = conditions: Fernandez et al 2000
IL-12 = conditions: Torii et al 1997
IL-16 = conditions: Dunzendorfer et al 2002-2003
B7-2 = conditions: Ashana et al 1995; Torii et al 1997
IL-10 = conditions: Torii et al 1997
[1] = system: IGF-1 (insulin-like growth factor-1); conditions: R. Zfoncea et al 1997

In the case of CGRP, the “CGRP activity: cytokines inhibited or suppressed, TNF-α; benefits” value (TNF-α) is listed as “Inhibits lipopolysaccharide induced TNF-α in macrophages”, the “CGRP activity: cytokines inhibited or suppressed, IL-1β; benefits” value (IL-1β) is listed as “Inhibits proliferation of T-cells” and the “CGRP activity: cytokines inhibited or suppressed, IL-7; benefits” value (IL-7) is listed as “Inhibits pre B-cell development and T-cell development”. For the same substance, the “CGRP activity: cytokines inhibited or suppressed, IL-12; benefits” value (IL-12) was “Suppresses Natural Killer Cell Stimulating factor (NKSF)”, the “CGRP activity: cytokines inhibited or suppressed, IL-16; benefits” value (IL-16) was “Inhibits macrophage chemotaxis” and the “CGRP activity: cytokines inhibited or suppressed, B7-2; benefits” value (B7-2) was “Inhibits Granulocyte-Macrophage Colony”. For the same substance, the “CGRP activity: induced anti-inflammatory cytokines, IL-10; benefits” value (IL-10) was “Inhibits monocyte inflammation” and the “expression of IGF-1” value [1] was “increases expression of IGF-1”.
